How the values were obtained:
[1] = species: Bos taurus; test: Displacement of ethidium bromide from calf thymus DNA by spectrofluorometric analysis
[2] = tested on: P388; test: Antitumor activity against mouse P388 cells allografted in ip dosed BDF1 mouse at optimum dose administered qd for 5 days relative to control; type: functional
[3] = tested on: Mus musculus; test: (§1) Toxicity in ip dosed BDF1 mouse allografted with mouse P388 cells administered qd for 5 days; type: organism-based; details: mouse, in vivo, 120 h
[4] = Lipophilic-hydrophilic balance, Rm of the compound by reversed-phase chromatographic analysis; type: physicochemical
[5] = as §1; type: organism-based; details: BDF1, mouse, in vivo
[6] = tested on: Pseudoalteromonas; test: Induction of bacteriophage PM2 closed circular DNA unwinding assessed as drug per nucleic acid phosphate ratio at equivalence by viscometric analysis
[7] = tested on: L1210; test: Antitumor activity against mouse L1210 cells allografted in ip dosed BDF1 mouse at optimum dose administered qd for 5 days relative to control; type: functional
[8] = tested on: Mus musculus; test: Toxicity in ip dosed BDF1 mouse allografted with mouse L1210 cells administered qd for 5 days; type: organism-based; details: mouse, in vivo, 120 h

Compound	C50 [1] [µM]	ILS [2] [%]	Activity [3] [mg/kg/day]	Rm [4]	MTD at 120 h [5] [mg/kg/day]	Ratio [6]	ILS [7] [%]	Activity [8] [mg/kg/day]
c1ccc2c(NCCCCCCNc3c4ccccc4nc4ccccc34)c3ccccc3nc2c1	0.15	53	2.5	0.13	–	–	–	–
Cl.O=S(=O)(CCCCS(=O)(=O)Nc1ccc(Nc2c3ccccc3nc3ccccc23)cc1)Nc1ccc(Nc2c3ccccc3nc3ccccc23)cc1	0.053	>25	–	-0.11	> 500	–	–	–
Cl.O.c1ccc(OCCCCCCNc2ccnc3ccccc23)c(Nc2c3ccccc3nc3ccccc23)c1	0.99	>25	–	0.42	15	–	–	–
CCN(CC)CCCC(C)Nc1c2ccc(Cl)cc2nc2ccc(OC)cc12.CS(C)(=O)=O (stereo not given)	0.51	>25	–	–	90	–	–	–
Cl.O=S(=O)(CCCCCCNc1c2ccccc2nc2ccccc12)Nc1ccc(Nc2c3ccccc3nc3ccccc23)cc1	0.21	>25	–	0.08	150	–	–	–
Cl.O.O=S(=O)(CCCCNc1c2ccccc2nc2ccccc12)Nc1ccc(Nc2c3ccccc3nc3ccccc23)cc1	0.09	>25	–	-0.1	37	0.066	–	–
Cl.c1ccc(OCCCCCCCCOc2ccccc2Nc2c3ccccc3nc3ccccc23)c(Nc2c3ccccc3nc3ccccc23)c1	9	>25	–	0.82	> 500	–	–	–
COc1cc(NS(=O)(=O)CCCCS(=O)(=O)Nc2ccc(Nc3c4ccccc4nc4c(C(N)=O)cccc34)c(OC)c2)ccc1Nc1c2ccccc2nc2c(C(N)=O)cccc12.Cl.O	0.068	>25	–	-0.64	11	–	–	–
Br.O=S(=O)(CCCNc1ccnc2ccccc12)Nc1ccc(Nc2c3ccccc3nc3ccccc23)cc1	0.12	>25	–	-0.45	375	–	–	–
c1ccc2c(NCCCCCCCCCCCCNc3c4ccccc4nc4ccccc34)c3ccccc3nc2c1	0.11	>25	–	0.79	5	–	–	–
Cl.c1ccc(OCCCCCCCCNc2ccnc3ccccc23)c(Nc2c3ccccc3nc3ccccc23)c1	0.6	>25	–	0.59	31	–	–	–
COc1cc(NS(=O)(=O)CCCCCS(=O)(=O)Nc2ccc(Nc3c4ccccc4nc4ccccc34)c(OC)c2)ccc1Nc1c2ccccc2nc2ccccc12.CS(=O)(=O)O.O	0.14	71	400	0.35	–	–	36	400
c1ccc2c(NCCCCCCCNc3c4ccccc4nc4ccccc34)c3ccccc3nc2c1	0.1	67	5	0.27	–	–	–	–
c1ccc2c(NCCCCCCCCCCCCCCNc3c4ccccc4nc4ccccc34)c3ccccc3nc2c1	0.14	>25	–	0.82	–	–	–	–
Cl.O.c1ccc(OCCOc2ccccc2Nc2c3ccccc3nc3ccccc23)c(Nc2c3ccccc3nc3ccccc23)c1	0.4	>25	–	0.17	125	–	–	–
c1ccc2c(NCCCCCCCCCCCCCCCCNc3c4ccccc4nc4ccccc34)c3ccccc3nc2c1	0.23	>25	–	0.88	–	–	–	–
COc1cc(NS(=O)(=O)CCCCCCS(=O)(=O)Nc2ccc(Nc3c4ccccc4nc4ccccc34)c(OC)c2)ccc1Nc1c2ccccc2nc2ccccc12.Cl.O	0.15	>25	–	0.42	270	–	–	–
c1ccc2c(NCCCCNc3c4ccccc4nc4ccccc34)c3ccccc3nc2c1	0.3	>25	–	-0.26	10	–	–	–
Cl.O.c1ccc(OCCCCCNc2ccnc3ccccc23)c(Nc2c3ccccc3nc3ccccc23)c1	1.9	>25	–	0.23	17	–	–	–
CCN(CC)CCCC(C)Nc1ccnc2cc(Cl)ccc12.Cl (stereo not given)	11	>25	–	–	40	–	–	–
Cl.c1ccc(OCCCCCOc2ccccc2Nc2c3ccccc3nc3ccccc23)c(Nc2c3ccccc3nc3ccccc23)c1	1.4	>25	–	0.6	> 500	–	–	–
CS(=O)(=O)Nc1ccc(Nc2c3ccccc3nc3c(C(N)=O)cccc23)c(OCCCCOc2cc(NS(C)(=O)=O)ccc2Nc2c3ccccc3nc3c(C(N)=O)cccc23)c1.Cl.O	0.72	>25	–	-0.87	275	–	–	–
Cl.O.O=S(=O)(CCCCCNc1c2ccccc2nc2ccccc12)Nc1ccc(Nc2c3ccccc3nc3ccccc23)cc1	0.17	63	250	-0.04	–	–	35	250

Compound	C50 [1] [µM]	ILS [2] [%]	Activity [3] [mg/kg/day]	Rm [4]	MTD at 120 h [5] [mg/kg/day]	Ratio [6]	ILS [7] [%]	Activity [8] [mg/kg/day]
Cl.c1ccc(OCCCOc2ccccc2Nc2c3ccccc3nc3ccccc23)c(Nc2c3ccccc3nc3ccccc23)c1	0.6	>25	–	0.28	50	0.072	–	–
Cl.O.O=S(=O)(CCCCCS(=O)(=O)Nc1ccc(Nc2c3ccccc3nc3ccccc23)cc1)Nc1ccc(Nc2c3ccccc3nc3ccccc23)cc1	0.07	49	210	-0.02	–	–	28	210
c1ccc2c(NCCCCCCCCNc3c4ccccc4nc4ccccc34)c3ccccc3nc2c1	0.11	55	2.5	0.44	–	–	–	–
Cl.O.O=S(=O)(CCNc1ncnc2ccccc12)Nc1ccc(Nc2c3ccccc3nc3ccccc23)cc1	0.67	100	100	-0.53	–	–	57	50
COc1cc(NS(=O)(=O)CCCS(=O)(=O)Nc2ccc(Nc3c4ccccc4nc4ccccc34)c(OC)c2)ccc1Nc1c2ccccc2nc2ccccc12.CS(=O)(=O)O.O	–	–	50	0.22	–	–	–	50
Cl.c1ccc(OCCCCOc2ccccc2Nc2c3ccccc3nc3ccccc23)c(Nc2c3ccccc3nc3ccccc23)c1	0.8	>25	–	0.53	> 500	–	–	–
c1ccc2c(NCCNc3c4ccccc4nc4ccccc34)c3ccccc3nc2c1	0.7	>25	–	-0.44	5	–	–	–
Cl.Nc1c2ccccc2nc2ccccc12 [AMINACRINE HYDROCHLORIDE]	8.1	>25	–	-0.08	12.5	–	–	–
Cl.O.c1ccc(OCCCCCCCNc2ccnc3ccccc23)c(Nc2c3ccccc3nc3ccccc23)c1	0.71	>25	–	0.52	25	–	–	–
Cl.c1ccc(OCCCCOc2ccccc2Nc2ccnc3ccccc23)c(Nc2ccnc3ccccc23)c1	9.2	>25	–	-0.1	25	–	–	–
CS(=O)(=O)Nc1ccc(Nc2c3ccccc3nc3ccccc23)c(OCCCCOc2cc(NS(C)(=O)=O)ccc2Nc2c3ccccc3nc3ccccc23)c1.Cl	0.22	>25	–	0.01	> 500	–	–	–
c1ccc2c(NCCCCCCCCCCNc3c4ccccc4nc4ccccc34)c3ccccc3nc2c1	0.09	33	2.5	0.65	–	–	–	–
Cl.c1ccc(OCCCCCCOc2ccccc2Nc2c3ccccc3nc3ccccc23)c(Nc2c3ccccc3nc3ccccc23)c1	2.1	>25	–	0.71	> 500	–	–	–
COc1cc(NS(=O)(=O)CCCCS(=O)(=O)Nc2ccc(Nc3ccnc4ccccc34)c(OC)c2)ccc1Nc1ccnc2ccccc12.Cl.O	7.5	>25	–	-0.28	12	0.15	–	–
c1ccc2c(NCCCCCNc3c4ccccc4nc4ccccc34)c3ccccc3nc2c1	0.21	36	7.5	-0.06	–	–	–	–
Cl.c1ccc(OCCCCCCCCCCOc2ccccc2Nc2c3ccccc3nc3ccccc23)c(Nc2c3ccccc3nc3ccccc23)c1	8	>25	–	0.92	> 500	–	–	–
CCOc1cc(NS(C)(=O)=O)ccc1Nc1c2ccccc2nc2ccccc12	19	218	60	0.37	–	–	71	60
O.c1ccc(OCCCNc2ccnc3ccccc23)c(Nc2c3ccccc3nc3ccccc23)c1	2.7	>25	–	-0.19	50	–	–	–
Cl.c1ccc(OCCCCCCCOc2ccccc2Nc2c3ccccc3nc3ccccc23)c(Nc2c3ccccc3nc3ccccc23)c1	3.8	>25	–	0.75	> 500	–	–	–
Cl.c1ccc(OCCCCCCCCCOc2ccccc2Nc2c3ccccc3nc3ccccc23)c(Nc2c3ccccc3nc3ccccc23)c1	3.3	>25	–	0.85	> 500	–	–	–
Cl.O.c1ccc(OCCCCNc2ccnc3ccccc23)c(Nc2c3ccccc3nc3ccccc23)c1	2.6	>25	–	-0.07	20	–	–	–
CS(=O)(=O)Nc1ccc(Nc2c3ccccc3nc3ccccc23)cc1	5.9	223	45	0	–	–	107	45

Reference: ChEMBL document CHEMBL3272039, “Potenial antitumor agents. 28. Deoxyribonucleic acid polyintercalating agents” (J Med Chem, 1978)
